Results reported in US10301306B2, “Substituted dihydro-1H-pyrrolo[3,2-c]pyridin-4(5H)-ones as RIPK3 inhibitors” (BRISTOL-MYERS SQUIBB COMPANY, priority 2014, dated 2019).

Biological target: RIPK3 (Homo sapiens (Human), UniProt Q9Y572)
Experiment: RIPK3 HTRF Kinase Assay
Assay type: binding
Conditions: RIPK3 1 nM; HTRF probe 23 nM; 60 min at room temperature; read-out: IC50 for Inhibition of RIPK3

RIPK3, sequence (Q9Y572 whole entry, species assumed): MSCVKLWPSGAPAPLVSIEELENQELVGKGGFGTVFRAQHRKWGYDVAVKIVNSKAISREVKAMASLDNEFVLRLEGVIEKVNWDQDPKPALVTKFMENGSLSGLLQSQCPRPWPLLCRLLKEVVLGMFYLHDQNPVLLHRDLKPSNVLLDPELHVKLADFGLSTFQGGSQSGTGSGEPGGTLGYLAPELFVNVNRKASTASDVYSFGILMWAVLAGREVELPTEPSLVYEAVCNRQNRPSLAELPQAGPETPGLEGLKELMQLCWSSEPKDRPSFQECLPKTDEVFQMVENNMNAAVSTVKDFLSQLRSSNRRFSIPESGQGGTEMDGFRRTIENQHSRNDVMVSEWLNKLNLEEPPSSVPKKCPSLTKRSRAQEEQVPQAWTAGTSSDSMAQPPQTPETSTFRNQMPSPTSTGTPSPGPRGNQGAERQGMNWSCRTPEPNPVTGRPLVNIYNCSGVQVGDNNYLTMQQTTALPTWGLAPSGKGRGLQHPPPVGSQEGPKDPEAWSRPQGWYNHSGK

First: COc1ccc(-c2c3c(n(Cc4ccc(F)cc4C#N)c2-c2ccncc2)CCNC3=O)cc1 [Example 121]
Second: N#Cc1cc(F)ccc1Cn1c2c(c(-c3ccc(OC(F)(F)F)cc3)c1-c1ccncc1)C(=O)NCC2 [Example 122]
The IC50 of the first is lower: 31 to 100 nM for the first, 100 to 15000 nM for the second.

N#Cc1cc(F)ccc1Cn1c2c(c(-c3cccc(C(F)(F)F)c3)c1-c1ccncc1)C(=O)NCC2 [Example 123] and N#Cc1cc(F)ccc1Cn1c2c(c(-c3cccc(CO)c3)c1-c1ccncc1)C(=O)NCC2 [Example 134] cannot be ordered by IC50: under 30 nM for the first, under 30 nM for the second.

COc1ccc(-c2c3c(n(Cc4ccc(F)cc4C#N)c2-c2ccncc2)CCNC3=O)cn1 [Example 124] and COc1cc(-c2c3c(n(Cc4ccc(F)cc4C#N)c2-c2ccncc2)CCNC3=O)ccn1 [Example 140] cannot be ordered by IC50: under 30 nM for the first, under 30 nM for the second.

CS(=O)(=O)c1cccc(-c2c3c(n(Cc4ccc(F)cc4C#N)c2-c2ccncc2)CCNC3=O)c1 [Example 126] and N#Cc1cc(F)ccc1Cn1c2c(c(-c3cccc(S(N)(=O)=O)c3)c1-c1ccncc1)C(=O)NCC2 [Example 133] fall in the same range of IC50: 100 to 15000 nM for the first, 100 to 15000 nM for the second.

N#Cc1cc(F)ccc1Cn1c2c(c(-c3ccsc3)c1-c1ccncc1)C(=O)NCC2 [Example 128] and N#Cc1cc(F)ccc1Cn1c2c(c(-c3ccoc3)c1-c1ccncc1)C(=O)NCC2 [Example 141] cannot be ordered by IC50: under 30 nM for the first, under 30 nM for the second.

First: N#Cc1cc(F)ccc1Cn1c2c(c(-c3cccc(Cl)c3Cl)c1-c1ccncc1)C(=O)NCC2 [Example 129]
Second: N#Cc1cc(F)ccc1Cn1c2c(c(-c3ccc(Cl)c(Cl)c3)c1-c1ccncc1)C(=O)NCC2 [Example 136]
The IC50 of the first is higher: 31 to 100 nM for the first, under 30 nM for the second. The second is the more potent here.

N#Cc1cc(F)ccc1Cn1c2c(c(-c3ccc(Cl)s3)c1-c1ccncc1)C(=O)NCC2 [Example 130] and Cc1csc(-c2c3c(n(Cc4ccc(F)cc4C#N)c2-c2ccncc2)CCNC3=O)c1 [Example 142] cannot be ordered by IC50: under 30 nM for the first, under 30 nM for the second.

COc1ccncc1-c1c2c(n(Cc3ccc(F)cc3C#N)c1-c1ccncc1)CCNC2=O [Example 131] and N#Cc1cc(F)ccc1Cn1c2c(c(-c3cncc4ccccc34)c1-c1ccncc1)C(=O)NCC2 [Example 132] fall in the same range of IC50: 100 to 15000 nM for the first, 100 to 15000 nM for the second.

Compared with N#Cc1cc(F)ccc1Cn1c2c(c(-c3ccc(OCc4ccccc4)cc3)c1-c1ccncc1)C(=O)NCC2 [Example 135], N#Cc1cccc(-c2c3c(n(Cc4ccc(F)cc4C#N)c2-c2ccncc2)CCNC3=O)c1 [Example 139] is lower in IC50: 100 to 15000 nM for the first, 31 to 100 nM for the second. The second is the more potent here.

First: N#Cc1cc(F)ccc1Cn1c2c(c(-c3cc(Cl)cc(Cl)c3)c1-c1ccncc1)C(=O)NCC2 [Example 138]
Second: Cc1cscc1-c1c2c(n(Cc3ccc(F)cc3C#N)c1-c1ccncc1)CCNC2=O [Example 143]
The IC50 of the first is lower: under 30 nM for the first, 100 to 15000 nM for the second. The first is the more potent here.

Compared with N#Cc1cc(F)ccc1Cn1c2c(c(/C=C/c3ccccc3)c1-c1ccncc1)C(=O)NCC2 [Example 145], Nc1cccc(-c2c3c(n(Cc4ccc(Cl)cc4F)c2-c2ccncc2)CCNC3=O)c1 [Example 169] is higher in IC50: 31 to 100 nM for the first, 100 to 15000 nM for the second. The first is the more potent here.

First: O=C1NCCc2c1c(-c1ccc(F)cc1)c(-c1ccnc(NCCO)c1)n2Cc1ccc(C(F)(F)F)cc1F [Example 146]
Second: COCCNc1cc(-c2c(-c3ccc(F)cc3)c3c(n2Cc2ccc(C(F)(F)F)cc2F)CCNC3=O)ccn1 [Example 147]
The IC50 of the first is lower: 31 to 100 nM for the first, 100 to 15000 nM for the second. The first is the more potent here.

CCC(=O)Nc1cc(-c2c(-c3ccc(F)cc3)c3c(n2Cc2ccc(C(F)(F)F)cc2F)CCNC3=O)ccn1 [Example 149] and COCC(=O)Nc1cc(-c2c(-c3ccc(F)cc3)c3c(n2Cc2ccc(C(F)(F)F)cc2F)CCNC3=O)ccn1 [Example 150] fall in the same range of IC50: 31 to 100 nM for the first, 31 to 100 nM for the second.

CC1(C)CNC(=O)c2c(-c3ccc(F)cc3)c(-c3ccncc3)n(CC3CCOCC3)c21 [Example 152, 3-(4-Fluorophenyl)-7,7-dimethyl-2-(pyridin-4-yl)-1-((tetrahydro-2H-pyran-4-yl)methyl)-6,7-dihydro-1H-pyrrolo[3,2-c]pyridin-4(5H)-one] and Cn1c(-c2ccncc2)c(-c2ccc(F)cc2)c2c1C(C)(C)CNC2=O [Example 154, 3-(4-Fluorophenyl)-1,7,7-trimethyl-2-(pyridin-4-yl)-6,7-dihydro-1H-pyrrolo[3,2-c]pyridin-4(5H)-one] fall in the same range of IC50: 100 to 15000 nM for the first, 100 to 15000 nM for the second.

Compared with CC1(C)CNC(=O)c2c1[nH]c(-c1ccncc1)c2-c1ccc(F)cc1 [Example 153, 3-(4-Fluorophenyl)-7,7-dimethyl-2-(pyridin-4-yl)-6,7-dihydro-1H-pyrrolo[3,2-c]pyridin-4(5H)-one], Cc1ccc(S(=O)(=O)n2c3c(c(-c4ccc(F)cc4)c2-c2ccncc2)C(=O)NCC3)cc1 [Example 162, 3-(4-Fluorophenyl)-2-(pyridin-4-yl)-1-tosyl-6,7-dihydro-1H-pyrrolo[3,2-c]pyridin-4(5H)-one] is higher in IC50: under 30 nM for the first, 100 to 15000 nM for the second. The first is the more potent here.

Compared with O=c1[nH]ccc2c1c(-c1ccc(F)cc1)c(-c1ccnc(Cl)c1)n2Cc1ccc(C(F)(F)F)cc1F [Example 155, 2-(2-Chloropyridin-4-yl)-1-(2-fluoro-4-(trifluoromethyl)benzyl)-3-(4-fluorophenyl)-1H-pyrrolo[3,2-c]pyridin-4(5H)-one], O=c1[nH]ccc2c1c(-c1ccc(F)cc1)c(-c1ccncc1)n2Cc1ccc(C(F)(F)F)cc1F [Example 157, 1-(2-Fluoro-4-(trifluoromethyl)benzyl)-3-(4-fluorophenyl)-2-(pyridin-4-yl)-1H-pyrrolo[3,2-c]pyridin-4(5H)-one] is lower in IC50: 100 to 15000 nM for the first, under 30 nM for the second. The second is the more potent here.

Compared with CCC(=O)Nc1cc(-c2c(-c3ccc(F)cc3)c3c(=O)[nH]ccc3n2Cc2ccc(C(F)(F)F)cc2F)ccn1 [Example 156, N-(4-(1-(2-Fluoro-4-(trifluoromethyl)benzyl)-3-(4-fluorophenyl)-4-oxo-4,5-dihydro-1H-pyrrolo[3,2-c]pyridin-2-yl)pyridin-2-yl)propionamide], CCCC(=O)Nc1cccc(-c2c3c(n(Cc4ccc(Cl)cc4F)c2-c2ccncc2)CCNC3=O)c1 [Example 170] is higher in IC50: under 30 nM for the first, 100 to 15000 nM for the second.

First: CC(C)(C)OC(=O)Nc1cccc(-c2c3c(n(Cc4ccc(Cl)cc4F)c2-c2ccncc2)CCNC3=O)c1 [Example 163]
Second: COC(=O)c1cccc(-c2c3c(n(Cc4ccc(Cl)cc4F)c2-c2ccncc2)CCNC3=O)c1 [Example 167]
The IC50 of the first is lower: 31 to 100 nM for the first, 100 to 15000 nM for the second.

First: Cc1ccc(-c2c3c(n(Cc4ccc(Cl)cc4F)c2-c2ccncc2)CCNC3=O)s1 [Example 164]
Second: Cc1cc(-c2c3c(n(Cc4ccc(Cl)cc4F)c2-c2ccncc2)CCNC3=O)ccn1 [Example 168]
The IC50 of the first is lower: under 30 nM for the first, 100 to 15000 nM for the second.

Cn1cc(-c2c3c(n(Cc4ccc(Cl)cc4F)c2-c2ccncc2)CCNC3=O)cn1 [Example 165] and O=C1NCCc2c1c(-c1ccncc1F)c(-c1ccncc1)n2Cc1ccc(Cl)cc1F [Example 166] fall in the same range of IC50: 100 to 15000 nM for the first, 100 to 15000 nM for the second.

First: Cc1cc(Cn2c3c(c(-c4cccc(NC(=O)OC(C)(C)C)c4)c2-c2ccncc2)C(=O)NCC3)n(C)n1 [Example 171]
Second: CCC(=O)Nc1cccc(-c2c3c(n(Cc4cc(C)nn4C)c2-c2ccncc2)CCNC3=O)c1 [Example 179]
The IC50 of the first is lower: 31 to 100 nM for the first, 100 to 15000 nM for the second. The first is the more potent here.

COC(=O)c1cccc(-c2c3c(n(Cc4cc(C)nn4C)c2-c2ccncc2)CCNC3=O)c1 [Example 172] and Cc1cc(Cn2c3c(c(-c4cccc(N)c4)c2-c2ccncc2)C(=O)NCC3)n(C)n1 [Example 174] fall in the same range of IC50: 100 to 15000 nM for the first, 100 to 15000 nM for the second.

Cc1cc(Cn2c3c(c(-c4cccc(-c5c(C)noc5C)c4)c2-c2ccncc2)C(=O)NCC3)n(C)n1 [Example 173] and Cc1cc(Cn2c3c(c(-c4cccc(NC=O)c4)c2-c2ccncc2)C(=O)NCC3)n(C)n1 [Example 178] fall in the same range of IC50: 100 to 15000 nM for the first, 100 to 15000 nM for the second.

Cc1cc(Cn2c3c(c(-c4cccc(NC(=O)Cc5ccccc5)c4)c2-c2ccncc2)C(=O)NCC3)n(C)n1 [Example 175] and Cc1cc(Cn2c3c(c(-c4cccc(NC(=O)c5ccccc5)c4)c2-c2ccncc2)C(=O)NCC3)n(C)n1 [Example 176] fall in the same range of IC50: 100 to 15000 nM for the first, 100 to 15000 nM for the second.

Cc1cc(Cn2c3c(c(-c4cccc(NC(=O)C5CC5)c4)c2-c2ccncc2)C(=O)NCC3)n(C)n1 [Example 177] and Cc1cc(Cn2c3c(c(-c4cccc(NC(=O)OC(C)(C)C)c4)c2-c2ccnc(NC(=O)C4CC4)c2)C(=O)NCC3)n(C)n1 [Example 185, tert-Butyl (3-(2-(2-(cyclopropanecarboxamido)pyridin-4-yl)-1-((1,3-dimethyl-1H-pyrazol-5-yl)methyl)-4-oxo-4,5,6,7-tetrahydro-1H-pyrrolo[3,2-c]pyridin-3-yl)phenyl)carbamate] fall in the same range of IC50: 100 to 15000 nM for the first, 100 to 15000 nM for the second.

Cc1cc(Cn2c3c(c(-c4cccc(CCc5ccccc5)c4)c2-c2ccncc2)C(=O)NCC3)n(C)n1 [Example 180] and Cc1cc(Cn2c3c(c(-c4cccc(CCC5CCCCC5)c4)c2-c2ccncc2)C(=O)NCC3)n(C)n1 [Example 181] fall in the same range of IC50: 100 to 15000 nM for the first, 100 to 15000 nM for the second.

Compared with Cc1cc(Cn2c3c(c(-c4ccc(F)cc4)c2-c2ccncc2F)C(=O)NCC3)n(C)n1 [Example 182], COc1cnccc1-c1c(-c2ccc(F)cc2)c2c(n1Cc1cc(C)nn1C)CCNC2=O [Example 183] is lower in IC50: 31 to 100 nM for the first, under 30 nM for the second. The second is the more potent here.

Cc1cc(Cn2c3c(c(-c4ccc(F)cc4)c2-c2cn[nH]c2)C(=O)NCC3)n(C)n1 [Example 184] gave an IC50 of 100 to 15000 nM.

Same assay, conditions: read-out: IC50 for Inhibition of RIPK3

N#Cc1cc(F)ccc1Cn1c2c(c(-c3cccc(-c4ccccc4)c3)c1-c1ccncc1)C(=O)NCC2 [Example 120] and N#Cc1cc(F)ccc1Cn1c2c(c(-c3ccccc3-c3ccccc3)c1-c1ccncc1)C(=O)NCC2 [Example 125] fall in the same range of IC50: 100 to 15000 nM for the first, 100 to 15000 nM for the second.
